According to patent EP0080283B1, “N-carboxyalkylproline-containing tripeptides” (SMITHKLINE BECKMAN CORPORATION, priority 1981, dated 1983):
Counter-ions that a name gives are not always drawn.

What was measured:
anesthetized dogs = assay: renal anesthetized dog screening protocol (renal vasodilator activity test, infusion); assay type: in vivo; set-up: renal blood flow / renal vascular resistance: dose or concentration left out as unconfirmed; details: for renal vasodilators: primary test period of the screening protocol
Source text: Representative specific results are included in the examples.

[1] = test system: spontaneously hypertensive rats (SHR); assay: spontaneously hypertensive rat test, diuretic naturetic assay; assay type: in vivo
Protocol: In this test, male, Okamato-Aoki strain, spontaneously hypertensive rats, aged 16-19 weeks, are fasted, then, the following afternoon, the first dose of test compound is adminstered, along with a 25 ml/kg p.o. load of normal saline. The animals are, then, placed in metabolism cages and urine collected for three hours for analysis. Indirect systolic blood pressure and heart rate are measured by a tail-cuff. An identical second dose of test compound is adminstered. After two hours, blood pressure and heart rate are again tested. The test compound is usually administered p.o. or i.p. in saline with 0.02% ascorbic acid.

toad bladder = toad bladder anti-ADH assay
[2] = test system: angiotensin coverting enzyme; assay: angiotensin converting enzyme inhibiting activity; assay type: in vivo; details: at 10 times its renally effective dose
[3] = test system: dopamine-sensitive adenylate cyclase system; assay: dopamine-sensitive adenylate cyclase system in vitro; assay type: biochemical
[4] = bradycardic effect (heart rate; test not specified); details: in vivo
[5] = 30 µg/kg/min, 3 anesthetized dogs
[6] = two anesthetized dogs, 3, 30 and 300
[7] = accumulative effect at 300 dose, 2 anesthetized dogs

C[C@H](NC(=O)[C@@H]1CCCN1CC(=O)O)C(=O)N1CCC[C@H]1C(=O)O [Example 1 barium salt, N-carboxymethyl-L-propyl-L-alanyl-L-proline]
decrease in renal vascular resistance (anesthetized dogs; [5]): 15% | increase in renal blood flow (anesthetized dogs; [5]): 21.7%

O=C(O)CN1CCC[C@H]1C(=O)N[C@@H](Cc1ccccc1)C(=O)N1CCC[C@H]1C(=O)O [Example 2 barium salt, N-carboxymethyl-L-prolyl-L-phenylalanyl-L-proline]
activity within the parameters of anesthetized dog screening test (anesthetized dogs; dog, in vivo): not active

O=C(O)CN1CCC[C@H]1C(=O)N[C@@H](Cc1ccccc1)C(=O)N1CCC[C@H]1C(=O)O [Example 2 sulfate, N-carboxymethyl-L-prolyl-L-phenylalanyl-L-proline]
renal blood flow (anesthetized dogs; 30 and 300): increased renal blood flow

O=C(O)CN1CCC[C@H]1C(=O)NCCC(=O)N1CCC[C@H]1C(=O)O [Example 3, N-carboxymethyl-L-prolyi-o-alanyl-L-proline sulfate]
Urine ([1]; 25 mg/kg i.p., n=3, control 3): 16 ml/rat | K^9 ([1]; 25 mg/kg i.p., n=3, control 85.12): 242.53 | Na⊕ ([1]; 25 mg/kg i.p., n=3, control 126.76): 676.04 | Na^l, K° or urine excretion ([1]; 25 and 50 mg/kg i.p.): significant increase | ED15 (anesthetized dogs; Canis lupus familiaris, iv, anesthetized renal dog protocol, read-out: RVR-ED15): 0.012 mg/kg | renal blood flow (anesthetized dogs; [6]): increased renal blood flow | renal vascular resistance (anesthetized dogs; [6]): decreased renal vascular resistance | toad bladder anti-ADH assay activity (toad bladder): nor was it active | angiotensin coverting enzyme inhibiting activity [2]: did not have angiotensin coverting enzyme inhibiting activity | stimulate or antagonize the dopamine-sensitive adenylate cyclase system [3]: did not stimulate or antagonize | bradycardic effect [4]: weak bradycardic effect

C[C@H](NC(=O)[C@@H]1CCCN1CCC(=O)O)C(=O)N1CCC[C@H]1C(=O)O [Example 4, N-(2-carboxyethyl)-L-prolyl-L-alanyl-L-proline]
decrease in renal vascular resistance (anesthetized dogs; [7]): 23% | increase in renal blood flow (anesthetized dogs; [7]): 34%

CC(C(=O)O)N1CCC[C@H]1C(=O)NCCC(=O)N1CCC[C@H]1C(=O)O (stereo partly drawn) [N-(1-carboxyethyl)-L-propyl-β-alanyl-L-proline, reference compound]
renal vasodilators (anesthetized dogs): inactive

NCCCC[C@H](NC(=O)[C@@H]1CCCN1CC(=O)O)C(=O)N1CCC[C@H]1C(=O)O [N-carboxymethyl-L-propyl-L-lysyl-L-proline, reference compound]
renal vasodilators (anesthetized dogs): inactive

O=C(O)CN1CCCC1C(=O)NCC(=O)N1CCC[C@H]1C(=O)O (stereo partly drawn) [N-carboxymethyl-propyl-glycyl-L-proline, reference compound]
renal vasodilators (anesthetized dogs): inactive
